Experimental data as given in patent US9855204B1, “Methods and compositions for treating androgenetic alopecia” (priority 2015, dated 2018).

What was measured:
[1] = tested on: Androgenetic Alopecia Males; assay: Androgenetic Alopecia Males Arm 1, Global Photographic Assessment (Omnia System); type: in vivo, human; settings: 2 mg once daily, 6 months, 20 treated
From the text: (§1) The description of the experiments and their results are presented in the 4 tables below. In these experiments the subjects self-administered CEP for at least 6 months.

[2] = tested on: Androgenetic Alopecia Males; assay: Androgenetic Alopecia Males Arm 2, Global Photographic Assessment (Omnia System); type: in vivo, human; settings: 2 mg once every other day, 6 months, 20 treated
From the text: as §1

[3] = tested on: Androgenic Alopecia Females; assay: Androgenic Alopecia Females, Global Photographic Assessment (Omnia System); type: in vivo, human; settings: 2 mg daily, 6 months, 15 treated
From the text: as §1

[4] = tested on: androgenetic alopecia; assay: CEP in subjects with androgenetic alopecia, overall findings of the experiments; type: in vivo, human; settings: inferred from benefit in users who skipped daily doses
From the text: It is effective when dosed once daily or even once every other day, both of which make compliance much easier than dividing the doses into greater frequency. It is effective without regard to consumption following meals.
as §1
Some users were not perfectly compliant, sometimes skipping their daily doses. […] The expected effective dose range is from about 0.5 mg per day to about 100 mg per day.

[5] = prior medical use of CEP; cited from earlier work
[6] = tested on: DHT levels; settings: 1 mg dose taken daily; cited from earlier work
[7] = tested on: male pattern baldness; settings: cited from earlier work

Question: With `COc1ccc2cc1Oc1ccc(cc1)C[C@H]1c3c(cc4c(c3Oc3cc5c(cc3OC)CCN(C)[C@@H]5C2)OCO4)CCN1C` [Cepharanthine] as the compound, how does the “number of subjects with score Greatly decreased” value [1] read?
Answer: 0

Question: What about the “number of subjects with score Greatly increased” value [1] of the same compound?
Answer: 1

Question: And the “number of subjects with score Moderately decreased” value [1]?
Answer: 0

Question: What about the “number of subjects with score Moderately increased” value [1] of the same compound?
Answer: 7

Question: And the “number of subjects with score No change” value [1]?
Answer: 3

Question: What about the “number of subjects with score Slightly decreased” value [1] of the same compound?
Answer: 1

Question: And the “number of subjects with score Slightly increased” value [1]?
Answer: 8

Question: What about the “number of subjects with score Greatly decreased” value [2] of the same compound?
Answer: 0

Question: And the “number of subjects with score Greatly increased” value [2]?
Answer: 0

Question: And the “number of subjects with score Moderately decreased” value [2]?
Answer: 0

Question: And the “number of subjects with score Moderately increased” value [2]?
Answer: 5

Question: What about the “number of subjects with score No change” value [2] of the same compound?
Answer: 4

Question: And the “number of subjects with score Slightly decreased” value [2]?
Answer: 2

Question: What about the “number of subjects with score Slightly increased” value [2] of the same compound?
Answer: 9

Question: And the “number of subjects with score Greatly decreased” value [3]?
Answer: 0

Question: And the “number of subjects with score Greatly increased” value [3]?
Answer: 1

Question: And the “number of subjects with score Moderately decreased” value [3]?
Answer: 0

Question: What about the “number of subjects with score Moderately increased” value [3] of the same compound?
Answer: 2

Question: And the “number of subjects with score No change” value [3]?
Answer: 3

Question: And the “number of subjects with score Slightly decreased” value [3]?
Answer: 1

Question: What about the “number of subjects with score Slightly increased” value [3] of the same compound?
Answer: 8

Question: And the effective dose [4]?
Answer: about 0.5 mg CEP a day

Question: And the safety issues [5]?
Answer: No safety issues have been observed

Question: What about the side effects [5] of the same compound?
Answer: very rarely reported

Question: With `CC(C)(C)NC(=O)[C@H]1CC[C@H]2[C@@H]3CC[C@H]4NC(=O)C=C[C@]4(C)[C@H]3CC[C@]12C` [finasteride, Finasteride] as the compound, how does the “lowering of DHT levels” value [6] read?
Answer: ≤ 60%

Question: What about the “trial participants with substantial increase in hair growth” value ([7]; clinical trials, men) of the same compound?
Answer: 65%

Question: What about the “men in whom progression of hair loss stopped” value ([7]; men taking the drug during clinical trials) of the same compound?
Answer: 86%

Question: And the “men experiencing transient sexual side effects including erectile and libido difficulties” value ([7]; men)?
Answer: Less than 2%
